One series addresses T1, NK2 receptors (Rattus norvegicus, UniProt P16610).
T1 construct: prevent the increase in intestinal transit induced by the stimulation of NK2 receptors by the β-Ala^8-NKA(4-10) agonist; from tissue; host or cells: whole animal: infant rats aged 7-10 days (intestine, in vivo)
T1 sequence (P16610 1-390): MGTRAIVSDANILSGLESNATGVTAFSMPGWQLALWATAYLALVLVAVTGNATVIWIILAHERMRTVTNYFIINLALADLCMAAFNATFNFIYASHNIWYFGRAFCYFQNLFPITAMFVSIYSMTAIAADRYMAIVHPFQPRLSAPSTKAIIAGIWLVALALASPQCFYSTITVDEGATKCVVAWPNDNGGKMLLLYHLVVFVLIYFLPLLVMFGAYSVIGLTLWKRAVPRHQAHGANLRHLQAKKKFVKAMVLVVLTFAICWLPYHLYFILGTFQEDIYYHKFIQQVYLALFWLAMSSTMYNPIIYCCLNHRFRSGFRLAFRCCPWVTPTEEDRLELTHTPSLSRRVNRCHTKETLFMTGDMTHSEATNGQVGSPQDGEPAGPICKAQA
In words: Intestinal transit of a carbon suspension in infant rats, increase induced by NK2 selective agonist β-Ala^8-NKA(4-10). The settings on record: infant rats aged 7-10 days. Type of series: in vivo. The method, then: (§1) The formulations of the present invention were tested for their biological activity in vivo on newborn rats in accordance with the following method:
(§2) a) The NK2 selective agonist β-Ala^8-NKA(4-10) was administered intraperitoneally to infant rats aged between 7 and 10 days, both males and females, at a dose of 15 μg/kg. A 10% suspension of carbon in 1% methylcellulose was then administered orally to the animals at a volume of 15 ml/kg. The same carbon-based suspension was administered to a control group which had not received the NK2 agonist.

In another series the test system is infantile colics. The settings on record: clinical evidence from literature; cited from earlier work.
A further series in a line: clinical. The settings on record: human, in vivo, po.
Another series has as its system infant rats. Briefly: Basal intestinal transit in infant rats without agonist administration. It is filed as in vivo. The settings on record: oral, nepadutant 2.5 mg/kg, measured at 6 hours after administration, no agonist. As for the experimental part:
as §1, §2

On the set-up of series [1]: species or system rats. The settings on record: rat, in vivo, po.
For a further series, the system named is animal models of IBS. The settings on record: cited from earlier work.

As usually defined, the bioavailability is dose-corrected exposure relative to a reference, in per cent. The low end stands for little systemic uptake, the high end for much systemic uptake.

Positions of bridges follow the written chain, without caps; N, C: chain ends. Non-standard residues stand in square brackets, D forms with d. Residues, ends and D or L forms follow the SMILES beside them. *: point of attachment. NH(β-GlcNAc) = CC(=O)N[C@@H]1[C@@H](O)[C@H](O)[C@@H](CO)O[C@H]1N*; Dap = NC[C@H](N)C(=O)O

Consider β-Ala^8-NKA(4-10) [reference compound], for which the “increase in intestinal transit after agonist administration” value at NK2 receptors (15 μg/kg i.p., versus control group without agonist) is on record as “significant increase in intestinal transit”.
Take simethicone: in the series with infantile colics, the effect versus placebo result is “no better than placebo”.
For `CC(=O)N[C@@H]1[C@@H](O)[C@H](O)[C@@H](CO)O[C@H]1NC(=O)C[C@@H]1NC(=O)[C@H](CC(C)C)NC(=O)[C@@H]2CNC(=O)C[C@H](NC1=O)C(=O)N[C@@H](Cc1c[nH]c3ccccc13)C(=O)N[C@@H](Cc1ccccc1)C(=O)N2` [Nepadutant, cyclo((Asn(β-D-2-deoxy-2-acetamido-Glc)-Asp-Trp-Phe-Dap-Leu)cyclo(2β-5β))] (cyclo(D(NH(β-GlcNAc))DWF[Dap]L); lactam 2-5), the bioavailability in “clinical” stood at 1%. For the same molecule, the “effect on basal intestinal transit” value with infant rats is “no effect on basal intestinal transit”. Besides, the “prevention of the increase in intestinal transit induced by β-Ala^8-NKA(4-10)” value on NK2 receptors (oral, nepadutant 0.5 and 2.5 mg/kg at 2, 4 and 6 hours before agonist 15 μg/kg i.p.) was “able to prevent the increase in intestinal transit”. Besides, in series [1], the “bioavailability in infant rats” value is listed as “substantially enhanced”. Besides, the correction of hyperalgesia result in the series with animal models of IBS is “corrects hyperalgesia”.
